Data reported in patent publication US10189796B2, “[4-(1,3,3-trimethyl-2-oxo-3,4-dihydro-1H-quinoxalin-7-yl)phenoxy]ethyloxy compound or salt thereof” (SANTEN PHARMACEUTICAL CO., LTD., priority 2015, dated 2019).

Legend:
[1] = system: exorbital lacrimal gland-removed rat dry eye model; test: Dry eye syndrome (dry eye) model evaluation test; type: in vivo; conditions: eye drop 5 μL four times a day
Protocol: In order to evaluate the treatment effect of the present compounds on corneal disorder accompanied by dry eye syndrome (dry eye), a treatment effect on corneal disorder in an exorbital lacrimal gland-removed rat dry eye model was investigated. This model was prepared in accordance with the method of Fujihara, et al. (Invest. Ophthalmol. Vis. Sci., 42(1): 96-100 (2001)). Incidentally, this effect was scored according to the method of Murakami et al. (New Ophthalmologist 21(1): 87-90 (2004)), the extent of corneal disorder was scored and the improvement ratio was calculated from the corneal disorder score of the base agent administered group (control group), the corneal disorder score of the test compound administered group and the corneal disorder score of the normal rat.
A base agent containing a general additive(s) was added to the test compound to prepare test compound suspensions with 0.03% (W/V) and 0.1% (W/V). In addition, a base agent was added to the commercially available drug A to prepare a diluted solution with 0.05% (V/V).
• 1) By using male SD rats, somnopentyl was administered to the rats to apply them general anesthesia, exorbital lacrimal glands were removed, and corneal disorder was induced over 8 weeks thereafter. • 2) The test compound suspension was eye-dropped (instillation dose: 5 μL/time) to both eyes four times a day for 14 days. Incidentally, the base agent was similarly eye-dropped to the administered group (control group), and the commercially available drug A and its diluted solution were similarly eye-dropped. • 3) Fourteen days after the start of eye dropping, the cornea was stained with fluorescein. For each of the upper part, the middle part and the lower part of the cornea, scores of the degree of staining with fluorescein were determined according to the following criteria, and an average value of the total of the scores was calculated. Incidentally, 0.5 was set as an intermediate value between each score of 0, 1, 2 and 3. <<Judgement Standard>>
1: Dyeing is sparse, and the dyed portions of each dot are separated
2: Dyeing is a middle degree and part of the dotted dyed portions is adjacent
3: Dyeing is dense, and the dyed portions of each point are almost adjacent
(Calculation Formula) Corneal disorder improvement ratio (%) of the test compound administered group=(Ao−Ax)/(Ao−An)×100 • Ao: Average value of corneal disorder score of the base agent administered group (control group) • Ax: Average value of corneal disorder score of the test compound administered group • An: Average value of corneal disorder score of normal rat (Test Result and Consideration)

[2] = system: exorbital lacrimal gland-removed rat dry eye model; test: Dry eye syndrome (dry eye) model evaluation test; type: in vivo; conditions: eye drop 5 μL four times a day; remark: listed apart in the source
[3] = system: VEGF-induced retinal elevated vascular permeability model of rabbits; test: Retinal vascular permeability model evaluation test; type: in vivo, rabbit; conditions: 8% 50 μL/base agent A, intravitreal once; 4 weeks before VEGF induction
Protocol: In order to evaluate the inhibitory effect of the present compounds on VEGF-induced retinal vascular permeability, the inhibitory effect of the present compound on retinal vascular permeability in a VEGF-induced retinal elevated vascular permeability model of rabbits was evaluated. Incidentally, this effect was evaluated by calculating a leaked amount of the fluorescent dye of the base agent administered group (non-induced group), a leaked amount of the fluorescent dye of the base agent administered group (control group) and a leaked amount of the fluorescent dye of the test compound administered group.
To the test compound was added 0.01% Polysorbate 80/0.5% sodium carboxymethyl cellulose/PBS (hereinafter referred to as “base agent A”.), whereby 2% (W/V) or 8% (W/V) of the test compound suspension was prepared. Or else, to the test compound was added PEG400 (hereinafter referred to as “base agent B”.), whereby 6% (W/W) of the test compound solution was prepared.
VEGF solution: humanVEGF165 was dissolved in PBS to prepare 50 μg/mL of VEGF solution.
• 1) A mixed solution (1 mL/kg) of 5% ketamine hydrochloride injection solution and 2% xylazine hydrochloride injection solution with the ratio of 7:1 was intramuscularly administered to rabbits (Dutch male rabbits), and the rabbits were anesthetized. • 2) Tropicamide-phenylephrine hydrochloride ophthalmic solution (trade name: Midlin P) was eye dropped to maintain pupillary mydriasis, and then, the VEGF solution was intravitreally administered. Incidentally, PBS was intravitreally administered to the base agent administration group (non-induced group). • 3) Fluorescein was intravenously administered 2 days after intravitreal administration of VEGF. Two hours after the intravenous administration of fluorescein, an amount of the leaked fluorescent dye in the vitreous body was measured by using a fluorophotometer. (Test Method) • 1) One week before or 4 weeks before VEGF-induction, 50 μL of the test compound suspension (prepared by the base agent A) was intravitreally administered once, or 5 μL of the test compound solution (prepared by the base agent B) was intravitreally administered once. Incidentally, in the base agent administered group (non-induced group) and the base agent administered group (control group), the base agent A was used in place of the test compound suspension, or the base agent B was used in place of the test compound solution. • 2) Inhibition ratio of elevated retinal vascular permeability was calculated according to the following calculation formula. (Calculation Formula) Inhibitory ratio (%) on elevated retinal vascular permeability of the test compound administered group=100×{1−(average value of a leaked fluorescent dye amount in the test compound administered group−average value of a leaked fluorescent dye amount in the base agent administered group (non-induced group))/(average value of a leaked fluorescent dye amount in the base agent administered group (control group)−average value of a leaked fluorescent dye amount of the base agent administered group (non-induced group))}

Structure (SMILES) | Corneal disorder improvement ratio (%) After 14 days eye dropping ([1]; 0.03%) [%] | Corneal disorder improvement ratio (%) After 14 days eye dropping ([1]; 0.1%) [%] | Corneal disorder improvement ratio (%) After 7 days eye dropping ([2]; 0.03%) [%] | Corneal disorder improvement ratio (%) After 7 days eye dropping ([2]; 0.1%) [%] | Inhibitory ratio (%) on elevated vascular permeability [3] [%]
COc1cc(OC[C@H](C)OC(=O)CCC(=O)O)ccc1-c1ccc2c(c1COc1cc(F)ccc1C)N(C)C(=O)C(C)(C)N2 [Compound 12-1, (S)-7-[4-[2-(3-carboxypropanoyloxy)propyl]oxy-2-methoxyphenyl]-8-(5-fluoro-2-methylphenoxymethyl)-1,3,3-trimethyl-3,4-dihydro-1H-quinoxalin-2-one] | 48 | 58 | 33 | 42 | 
COc1cc(OC[C@H](C)OC(=O)C(O)CO)ccc1-c1ccc2c(c1COc1cc(F)ccc1C)N(C)C(=O)C(C)(C)N2 (stereo partly drawn) [Compound 13-1, (S)-7-[4-[2-(2,3-dihydroxypropanoyl)oxypropyl]oxy-2-methoxyphenyl]-8-(5-fluoro-2-methylphenoxymethyl)-1,3,3-trimethyl-3,4-dihydro-1H-quinoxalin-2-one] |  | 46 |  | 38 | 
COc1cc(OC[C@H](CC#N)OP(=O)(O)O)ccc1-c1ccc2c(c1COc1cc(F)ccc1C)N(C)C(=O)C(C)(C)N2 [Compound 14-3, (S)-7-[4-(3-cyano-2-phosphonohydroxypropyl)oxy-2-methoxyphenyl]-8-(5-fluoro-2-methylphenoxymethyl)-1,3,3-trimethyl-3,4-dihydro-1H-quinoxalin-2-one] |  |  |  |  | 89
